The values below come from patent US9604932B2 (priority 2013, dated 2017).

Series [1] concerns mice exposed to a lethal dose of E. coli lipopolysaccharide (LPS). Put plainly: Murine model of sepsis (lethal dose of E. coli LPS). Format: in vivo, Balb/c mice. To be noted: protocol only; 0, 20, 40, or 80 mg/kg/day BID IP. The procedure:
In this study, Balb/c mice exposed to a lethal dose of E. coli lipopolysaccharide (LPS; 10 mg/kg IP) are treated with R-107 (0, 20, 40, or 80 mg/kg/day, BID IP), with the initial dose given 1 hour after LPS injection, and the mortality for the animal treated with LPS only (the control group) vs. that for the animals treated with the various doses of R-107 is compared.
In a satellite study, tissues and sera are collected at 16 hours, i.e., 15 hours after the first administration and 3 hours after the second administration of R-107, for analysis, and the level of creatinine, aspartate transminase (AST), alanine transaminase (ALT), bilirubin, amylase, lipase, and alkaline phosphatase (ALP), associated with kidney, pancreas, and liver functioning are measured.

Series [2] concerns Pseudomonas aeruginosa (PSA)-induced septic pneumonia. Nature of the series: Sheep model of septic pneumonia. The format is in vivo, Merino sheep. To be noted: protocol only; total 80 mg/kg BID IV. The text has this: In this study, a model of sheep suffering from Pseudomonas aeruginosa (PSA)-induced septic pneumonia and consequent pulmonary dysfunction is used. Female Merino sheep are operatively instrumented for chronic study with Swan-Ganz®, i.e., pulmonary artery, and femoral artery catheters, and are randomly allocated to vehicle control or R-107 treatment group. Smoke inhalation injury (48 breaths of cotton smoke) is induced and 2.4×10^11 colony-forming units (CFU) of PSA are instilled in the lung via bronchoscope under general anesthesia. The animal in the treatment group are intravenously (IV) administered with a total of 80 mg/kg of R-107 BID. Ringer's lactate solution is titrated IV to maintain hematocrit (hct) at baseline±3%. Measurements are taken at baseline and every 3 hours during the 24 hours study period. Data are expressed as mean±SEM. Statistical analysis: two-way ANOVA and Bonferroni post hoc comparison. A p-value <0.05 is considered as statistically significant.

Series [3] has as its system renal ischemia-reperfusion injury. Put plainly: Rat model of renal ischemia-reperfusion injury. To be noted: protocol only; 80 mg/kg IV infusion. The format is in vivo, Sprague-Dawley rats.
Series [4] can be described thus: Plasma pharmacokinetics in sheep (release of R-100 from R-107), LCMS. The format is in vivo. On the procedure:
In the following two experiments, the pharmacokinetic of releasing R-100 from R-107, via R-105 that is the reduced form of R-100, was studied in vivo according to the protocol described herein.
100 μl aliquots plasma obtained from R-107-treated sheep or pig were thawed and 200 μl ice-cold ethanol was added to each 100 μl sample to precipitate protein. Samples were then vortexed, placed on ice for 10 minutes, and then spun down at room temperature for 15 minutes. A first 100 μl supernatant from each spun sample was withdrawn and placed in a labeled HPLC micro vial to which 300 μl MPA (LC mobile phase A) was added, and the vial contents were then mixed and submitted for LCMS analysis (kept at 4° C.). The concentration of R-107 was measured in this sample as was the concentration of R105. A second 100 μl supernatant from each spun sample was added to a labelled HPLC micro vial to which 300 μl MPA and 2 μl of Reducing solution (ascorbic acid, 1.0 mg/ml in water) were added. These vials were vortexed; incubated at 50° C. for 1 hour with gentle shaking; and were then cooled to 4° C. and submitted for LCMS analysis. This sample was analyzed for R105, i.e., reduced form of R-100, and the amount measured thus represents the sum of R-100 and R-105 originally present in the plasma. The concentration of R-100 can be calculated from that of the R-105 in the second sample minus that of R-105 in the first sample. However, the concentrations of R-105 were seen to be low (approximately 10% or less of those of R-100) and so the results reported below as R-100 are not corrected for R-105.
Sets of standards (R-100, R-105 and R-107) were prepared by spiking individually in pig plasma. 100 μl aliquots of these spiked plasma samples, after thawing, were included in the above extraction protocol.
Analysis method were carried out with an Agilent HPLC stack, with column eluate directed, via a diverter valve, into the source of an AB Sciex ‘Qstar Elite’ Hybrid TOF, high-resolution mass spectrometer. LC column: Phenomenex Kinetex C18 2.6u 100A, 2.1×50 mm. LC mobile phase A: H2O with 0.02% trifluoroacetic acid (TFA), 0.1% formic acid (HOF); Phase B: acetonitrile (ACN) with 0.02% TFA, 0.1% HOF. Mobile phase flow rate=500 μl/min. Injection size: 8 μl, via Agilent 1100 u-WPS autosampler. […]

The nature of a further series: Density of R-107. The format is physicochemical. Set-up: unit not given here. To be noted: oil.
Series [5] deals with pulmonary hypertension of the newborn (PPHN). Nature of the series: Lamb model of pulmonary hypertension of the newborn. To be noted: protocol only; 0.3, 1.0, 3.0 mg/kg/h IV. The format is in vivo, newborn lambs. On the procedure:
In this study, a prospective, placebo-controlled, dose-escalation, randomized study is carried out in anesthetized, mechanically-ventilated, and muscle-relaxed newborn lambs wherein pulmonary hypertension of the newborn (PPHN) has been induced by in utero ligation of the ductus arteriosus. This clinically-relevant gold-standard model is characterized by severe PAH that is poorly responsive to inhaled nitric oxide (iNO), thus reflecting the 30-50% of clinical PPHN non-responders to clinical iNO therapy. R-107 (0, 0.3, 1.0, and 3.0 mg/kg/h IV; n=6 per group) is compared to iNO (40 ppm; n=6) over a 6 hour period of observation. Hemodynamic parameters are monitored for response to treatment and post-treatment rebound pulmonary arterial hypertension. The activity of R-107 is related to its plasma concentration, in order to construct a pharmacodynamic profile.

Series [6] can be described thus: Incubation of R-107 in rat plasma, relative concentrations by HPLC. Format: in vitro ADME. To be noted: R-107 4 mM in rat plasma, 37° C. The procedure: In an in vitro study, 2,2,5,5-tetramethyl-3-(nitrooxymethyl)pyrrolidin-1-yl acetate (R-107) was incubated in mouse or rat plasma at 37° C. at a concentration of 4 mM, and the relative concentrations of this compound as well as of its corresponding hydroxylamine, (1-hydroxy-2,2,5,5-tetramethylpyrrolidin-3-yl) methyl nitrate (R-105), and 3-nitratomethyl-2,2,5,5-tetramethylpyrrolidinyloxy (R-100), were measured by HPLC.

For series [7], the system named is erectile dysfunction (ED). Nature of the series: Rat model of erectile dysfunction. Format: in vivo, Sprague-Dawley rats. To be noted: protocol only; 80 mg/kg/day BID IV.

In the case of `CC(=O)ON1C(C)(C)CC(CO[N+](=O)[O-])C1(C)C` (centres unmarked) [R-107, 2,2,5,5-tetramethyl-3-(nitrooxymethyl)pyrrolidin-1-yl acetate], the “Efficacy in murine model of sepsis” value in series [1] was “Effective”. Besides, the “Efficacy in sheep model of septic pneumonia” value in series [2] is “Effective”. In series [3], the “Efficacy in rat model of renal ischemia-reperfusion injury” value is reported as “Effective”. Besides, the R-100 in plasma result in series [4] (IM neat R-107 25 mg/kg, 48 hrs post dose) is on record as “not detected”. Besides, the R-107 in plasma entry in series [4] (IV neat R-107 25 mg/kg over 10 minutes, 2 hrs post dose) is “not detected”; in series [4] (IV neat R-107 25 mg/kg over 10 minutes, 4 hrs post dose), “not detected”; in series [4] (IV neat R-107 25 mg/kg over 10 minutes, 6 hrs post dose), “not detected”; in series [4] (IV neat R-107 25 mg/kg over 10 minutes, 8 hrs post dose), “not detected”; in series [4] (IV neat R-107 25 mg/kg over 10 minutes, 24 hrs post dose), “not detected”. This compound yielded a concentration at 0 h in series [4] (plasma, IV neat R-107 25 mg/kg over 10 minutes, 0 hrs post dose) of 0 ng/mL. Moreover, in series [4] (plasma, IV neat R-107 25 mg/kg over 10 minutes, 0.1 hrs post dose), the concentration at 0.1 h is 5500 ng/mL. This compound showed a concentration at 0.4 h in series [4] (plasma, IV neat R-107 25 mg/kg over 10 minutes, 0.4 hrs post dose) of 1210 ng/mL. This compound also returned a concentration at 0.5 h in series [4] (plasma, IV neat R-107 25 mg/kg over 10 minutes, 0.5 hrs post dose) of 200 ng/mL. The concentration at 1 h in series [4] (plasma, IV neat R-107 25 mg/kg over 10 minutes, 1 hrs post dose) was found to be 0 ng/mL. Further, the Density in “Density of R-107” is recorded as 1.12. In series [5], the “Efficacy in lamb model of pulmonary hypertension of the newborn” value is given as “Effective”. Further, the “Relative concentration of R-107” value was 246 in series [6] (0.1 hrs), 18 in series [6] (1.5 hrs) and 0 in series [6] (20 hrs). The “Efficacy in rat model of erectile dysfunction” value in series [7] is listed as “Effective”.
